According to patent US7498046B2, “Composition for inducing immune response comprising inverted microsomes” (Queen Mary & Westfield College, priority 2003, dated 2009):

Assays:
[1] = test system: T cells isolated from spleens; experiment: In vivo immunisation of C57BL/6 mice, spleen T cells cross-stimulated in vitro (proliferation, IL-2); details: C57BL/6, injected twice subcutaneously, one week interval, T cells six days after second injection
Excerpt: C57BL/6 (H-2b) mice were primed […]. by OVA-edited microsomes or Ld-peptide loaded microsomes or OVA peptide or OVA-pulsed RAW309Cr.1 cells and challenged by same stimulus after seven days. Six days after the challenge, enriched T cells were isolated from spleens and cultured at 10^5 cells/well with stimulus indicated. The RAW309Cr.1 cells were irradiated before co-culture with T cells. After three days, supernatants were harvested for cytokine ELISA (b) and cultures pulsed with [^3H]thymidine (a). The results are representative of groups of at least three mice per treatment group and the experiment was repeated four times with similar results. Error bars indicate the SEM of triplicate cultures. Similar set of experiments performed in Balb/c (H-2d) mice served as negative control.
To further examine the ability of OVA-edited microsomes to induce immune responses in vivo, OVA-edited microsomes from RAW309Cr.1 cells, microsomes loaded with Ld-specific peptide, soluble OVA peptides, RAW309Cr.1 pulsed with OVA peptides and PBS were used to induce immune response in vivo. Five groups of C57BL/6 or Balb/c mice, each group consisting of five mice, were injected twice subcutaneously with above stimuli, respectively. The interval between injections was one week. […]

B3Z T cell hybridoma = experiment: Activation of B3Z T cell hybridoma (LacZ activity, IL-2 ELISA); type: cell-based; details: soluble peptide
Protocol: Microsomes from 2×10^5 RAW309Cr.1 cells were used to load OVA or Ld-specific peptide as described in Material and Methods. 2×10^5 RAW309Cr.1 cells were pulsed with OVA peptide (see Material and Methods). After washing, peptide-pulsed 2×10^5 RAW309Cr.1 cells, OVA-loaded microsomes, Ld-peptide loaded microsomes, and the microsomes without peptide were co-cultured with 10^5 B3Z cells for over night. A) After washing with PBS, LacZ activity in B3Z cells was assayed by total cellular lysates with the LacZ substrate ONPG. The absorbance ([…]) was read after incubation for four hours at 37° C. B3Z cells cultured with 100 nM OVA peptide and normal medium were used as positive and negative control for the B3Z stimulation. B) The supernatants of these cultures were submitted for measuring IL-2 production by ELISA. The experiment was repeated four times with similar results. Error bars indicate the SEM of triplicate cultures. […]
The prepared stimuli including peptide-edited microsomes, peptide-pulsed RAW309Cr.1 cells, OVA peptide, were added to culture of 10^5 B3Z cells in a total of 200 μl. […] The linear range of OVA-response was determined by the addition of serial dilutions of SIINFEKL to the medium due to that the B3Z cells themselves express Kb and present SIINFEKL.

H2-Kb molecules = molecular target: T1, H2-Kb molecules (Mus musculus, UniProt P01901); experiment: Photo-crosslinking peptide binding assay of 125I-labelled ANB-NOS-OVA peptide to H2-Kb in microsomes or on the surface of RAW309Cr.1 cells; set-up: species or system murine; details: competitor at the concentration of report peptides
T1 construct: incubated with microsomes of RAW309Cr.1 and living RAW309Cr.1 cells under UV irradiation; endogenous in cells; host or cells: RAW309Cr.1 murine macrophage cell line (purified ER microsomes, or living cells)
T1 sequence (P01901 22-369): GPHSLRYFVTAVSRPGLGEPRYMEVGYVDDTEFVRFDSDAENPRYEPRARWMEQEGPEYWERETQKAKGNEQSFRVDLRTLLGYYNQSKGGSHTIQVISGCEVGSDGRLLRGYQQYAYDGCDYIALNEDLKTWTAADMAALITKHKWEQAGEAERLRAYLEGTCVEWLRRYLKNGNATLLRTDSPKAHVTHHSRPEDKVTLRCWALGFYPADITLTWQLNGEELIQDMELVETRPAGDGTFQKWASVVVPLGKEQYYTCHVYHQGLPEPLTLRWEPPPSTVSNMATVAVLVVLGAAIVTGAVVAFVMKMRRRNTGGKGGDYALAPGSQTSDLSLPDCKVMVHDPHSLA
T1 sequence (P01887 21-119 partner): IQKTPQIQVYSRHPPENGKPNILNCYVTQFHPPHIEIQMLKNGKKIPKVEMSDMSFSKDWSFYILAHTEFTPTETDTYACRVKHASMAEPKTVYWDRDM
Protocol: Peptide OVA 257-264 (SIINFEKL) was modified by substitution of third residue isoleucine to tyrosine in order for iodination and by covalently coupling a phenylazide with a nitro group on the ε-amino group of lysine at position seven. This nitro group can be photoactivated. The crosslinker modification was performed by mixing 0.5 mg of ANB-NOS (N-5-azido-2-nitrobenzoyloxysuccinimide) in 200 μl DMSO with 100 μg peptide in 100 μl PBS and 50 μl CPAS (3-[cyclohexylamino]-1-propanesulfonic acid) (0.5 M, pH 10). The reaction was allowed to proceed for 30 min on ice. To remove the excess ANB-NOS and ions, the mixture was purified by gel filtration on Sephadex G-10 and subsequently by HPLC. […]
To detect the peptide-receptive MHC class I molecules in the microsomal membranes, a crosslinker (ANB-NOS) was conjugated to the ε-amino group of the lysine residue of an H2-Kb-binding ovalbumin (OVA) peptide (residues 257-264, SIINFEKL) and substituted the isoleucine at position 3 with tyrosine to allow for iodination. […] For a quantitative comparison of peptide-receptive H2-Kb in microsomes and on cell surface of living RAW309Cr.1, the modified OVA peptide was labelled by ^125I and incubated with microsomes of RAW309Cr.1 and living RAW309Cr.1 cells under UV irradiation. Peptide-bound H2-Kb molecules were subsequently analysed by immunoprecipitation with an anti-H2 antibody Y3.

## SIINFEKL [OVA peptide]
[1]
  Induction of T cell responses by the immunising stimulus (proliferation of spleen T cells): responded to OVA-edited microsomes in vitro
B3Z T cell hybridoma
  IL-2 production by B3Z cells: could induce IL-2 production
H2-Kb molecules
  Competition of the labelled report OVA peptide binding to Kb: 50%
